Literature values in patent publication US20020146399A1, “Sorbic acid product comprising probiotics as addition to feedstuffs in agricultural livestock rearing” (priority 2001, published 2002).

Legend:
[1] = extensive data and decades of use in human food and animal feeds

solubility in cold water: dissolves only slightly
SMILES: C/C=C/C=C/C(=O)O [Sorbic acid, trans,trans-2,4-hexadienoic acid]
toxicity [1]: virtually nontoxic
